Assay results published in article PMC4409337, “Immucillins Impair Leishmania (L.) infantum chagasi and Leishmania (L.) amazonensis Multiplication In Vitro” (PLoS ONE, 2015).

Tests used:
[1] = target: T1, Nucleoside hydrolase NH36 (Leishmania donovani, UniProt Q8WQX2); experiment: Ki determination: inhibition of NH36 activity by immucillins; type: biochemical, Leishmania (L.) donovani; details: 10 mM inosine as substrate, 0.5 nM NH36, pH 7.4, room temperature
T1 sequence (Q8WQX2 1-314): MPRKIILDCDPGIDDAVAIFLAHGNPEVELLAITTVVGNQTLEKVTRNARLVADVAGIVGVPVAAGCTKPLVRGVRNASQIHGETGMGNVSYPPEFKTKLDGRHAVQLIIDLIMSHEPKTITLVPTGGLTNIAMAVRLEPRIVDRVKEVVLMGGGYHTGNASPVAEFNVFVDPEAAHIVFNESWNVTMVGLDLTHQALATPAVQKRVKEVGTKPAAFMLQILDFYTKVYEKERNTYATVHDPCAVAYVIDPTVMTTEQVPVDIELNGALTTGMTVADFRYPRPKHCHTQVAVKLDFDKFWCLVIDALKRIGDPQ
Procedure: BL21DE3 E.coli were transformed with the synthetic plasmid pET 28b encoding the gene of NH36 of Leishmania (L.) donovani (EMBL, Genbank and DDJB data bases, access number AY007193) with a His6tag at the C-terminal. Expression was induced with 0.5 mM IPTG and overnight incubation at 20°C. Purification of NH36 was performed on a column of Ni-NTA Superflow resin (Qiagen, USA) eluted by a stepwise imidazole gradient and monitored by SDS-polyacrylamide gel electrophoresis and protein assay. The extinction coefficient of NH36 is 21.437 mM^-1 cm^-1 at 280 nm, as calculated with the ProtParam program from ExPASy, and was used to estimate protein concentration (http://ca.expasy.org/seqanalref/). The yield of NH36 after purification was 11.87 mg per Liter of bacterial growth culture. Non-specific His-proteins with weak interactions were eluted with 50–100 mM imidazole (S1 Fig). The purified NH36 started to elute with 150 mM imidazole. We used 250 mM of imidazol in elution buffer for purification of NH36.
The reaction mixtures contained 10 mM inosine as substrate, 50 mM Hepes (pH 7.4), 100 mM KCl, 5 mM DTT and 1 unit XOD. The hydrolysis of inosine to hypoxanthine and ribose was followed by continuous reading of optical absorbance at 293 nm, using variable concentrations of inhibitors in a CARY 300UV-visible spectrophotometer. Controls without enzyme and without inhibitors were included in all inhibition assays. The inhibition constant for each immucillin was obtained, using GraFit 5 (Erithacus Software), by fitting initial rates with variable inhibitor concentrations to the equation (vi/v0 = [S] / Km + [S] + Km[I] / Ki), where v i is the initial rate in the presence of the inhibitor, v 0 is the initial rate in the absence of the inhibitor, K m is the Michaelis constant for inosine, [S] and [I] are inosine and inhibitor concentrations, respectively, and Ki is the inhibition constant.

[2] = system: L. (L.) amazonensis promastigotes; experiment: In vitro growth of promastigotes in FBS supplemented Schneider's insect medium; type: cell-based, Leishmania (L.) amazonensis; details: Leishmania amazonensis
From the text: The strain of Leishmania (L.) infantum chagasi MHOM/BR/1974/PP75 was obtained from the Leishmania Type Culture Collection (Fundacão Oswaldo Cruz, Rio de Janeiro, RJ, Brazil) and the strain of Leishmania (L.) amazonensis (MHOM/BR/1975/Josefa) was kindly given by Professor Rosâ[…] from Universidade Federal do Rio de Janeiro. Promastigotes were maintained by weekly transfers in screw-capped glass tubes containing Schneider's insect medium (Sigma Aldrich, MO, USA), pH 7.0, supplemented with 10% Fetal Bovine Serum (FBS) at 26°C. Stock solutions (20 mM) of immucillins IA […] prepared using Milli-Q purified water. Log phase promastigotes of L. (L.) infantum chagasi and L. […] Promastigotes were recorded in a Neubauer chamber after 24, 48, 72 and 96 hours of incubation at 26°C. […] We also assayed the possibility of reversing the inhibitory effect of IA in RPMI medium by the addition of adenosine to the culture medium. The concentration of adenosine in Schneider s insect serum supplemented medium was assessed by HPLC using a C-18 reverse-phase column as described.

[3] = system: L. (L.) infantum chagasi promastigotes; experiment: Promastigote multiplication in chemically defined RPMI medium; type: cell-based, Leishmania (L.) infantum chagasi
Procedure: Stock solutions (20 mM) of immucillins IA […] prepared using Milli-Q purified water. Log phase promastigotes of L. (L.) infantum chagasi and L. […] Promastigotes were recorded in a Neubauer chamber after 24, 48, 72 and 96 hours of incubation at 26°C. […] We also assayed the possibility of reversing the inhibitory effect of IA in RPMI medium by the addition of adenosine to the culture medium. The concentration of adenosine in Schneider s insect serum supplemented medium was assessed by HPLC using a C-18 reverse-phase column as described.

[4] = system: L. (L.) infantum chagasi promastigotes; experiment: Transmission electron microscopy of treated promastigotes; type: cell-based, Leishmania (L.) infantum chagasi; details: 10 μM, 72 h
From the text: The cells were washed with Milli Q water, dehydrated in increasing concentration of acetone and embedded in Epon (1: 1) (PolyBed 812). The ultrathin sections were obtained, contrasted with 5% uranyl acetate and lead citrate and observed under a Joel 1200 electron microscope.

[5] = Macrophage viability and cytotoxicity (Trypan Blue); details: female, BALB/c, mouse, peritoneal macrophages
Procedure: (§1) Alternatively, the immucillins were added at 0, 24 and 48 h and viability assessed after 72h. […] The amastigote growth was assessed 24 h after the last drug addition, on 200 cells in Giemsa stained coverslips and expressed as phagocytic index = percent of infected macrophages x average number of intracellular amastigotes. […] All experiments with mice were reviewed and approved by the Animal Care and Use Committee of the Instituto de Biofísica Carlos Chagas Fo.-UFRJ (CAUAP-CONCEA, Brazil, IMPPG-016) and were performed according to the guidelines of the National Institutes of Health, USA. We made all efforts in order to minimize animal suffering.

[6] = system: intracellular amastigotes of L. (L.) infantum chagasi; experiment: Replication of intracellular amastigotes in infected peritoneal macrophages (phagocytic index); type: cell-based, Leishmania (L.) infantum chagasi
Procedure: as §1, with “Alternatively, the immucillins were added at 0, 24 and 48 h and viability assessed after 72h.” left out

Compound `Nc1ncnc2c(C3N[C@H](CO)[C@@H](O)[C@H]3O)c[nH]c12` (stereo partly shown) [IA] has a Ki [1] of 0.08 µM, an inhibition at 500 µM ([2]; 500 μM, after 96 h of culture, read-out: percent inhibition on L. (L.) amazonensis replication) of 76% and an IC50 ([2]; single addition at 0 h, evaluated after 48 hours, 26°C, read-out: IC50 (CI 95%) on L. (L.) amazonensis promastigotes in vitro growth) of 48.7 µM. The inhibition at 10 µM ([3]; Leishmania infantum, 10 μM, 72 h, compared to RPMI with no addition) was 38%, the inhibition at 50 µM ([3]; Leishmania infantum, 50 μM, 72 h, compared to RPMI with no addition) was 46% and the IC50 ([3]; Leishmania infantum, RPMI medium lacking nucleosides or nucleobases, 72 h) was 75 µM. For the same compound, the “reversal of growth inhibition by adenosine” value ([3]; RPMI with 50 μM IA and 50-500 μM adenosine, 72h) was “can be reversed by the presence of exogenous adenosine”, the “effect on cellular ultrastructure of promastigotes” value [4] was “global alterations on their cellular morphology” and the CC50 at 48 h [5] was 900 µM. The “reduction in the number of intracellular amastigotes” value ([6]; 10 μM added daily at 0, 24 and 48 h) was 95%, the EC50 ([6]; Leishmania infantum, Peritoneal macrophage, drugs (0.5–10 μM) added at 0 h, incubation 24 h, linear interpolation, read-out: EC50 (CI 95%)) was 2.39 µM and the “decrease of intracellular amastigote parasite load” value ([6]; low micromolar concentrations, single to daily protocol) was 74–95%. For the same compound, the “reduction in the number of intracellular amastigotes” value ([6]; single 10 μM dose at 0 h, compared to untreated controls) was 74%.
